From patent US20260355196A1, “INHIBITORS AND DEGRADERS OF PIP4K PROTEIN” (Larkspur Biosciences, Inc., priority 2023, published 2026)

Target: T1, PIP4K2C (Homo sapiens, UniProt Q8TBX8)
T1 sequence (Q8TBX8 1-421): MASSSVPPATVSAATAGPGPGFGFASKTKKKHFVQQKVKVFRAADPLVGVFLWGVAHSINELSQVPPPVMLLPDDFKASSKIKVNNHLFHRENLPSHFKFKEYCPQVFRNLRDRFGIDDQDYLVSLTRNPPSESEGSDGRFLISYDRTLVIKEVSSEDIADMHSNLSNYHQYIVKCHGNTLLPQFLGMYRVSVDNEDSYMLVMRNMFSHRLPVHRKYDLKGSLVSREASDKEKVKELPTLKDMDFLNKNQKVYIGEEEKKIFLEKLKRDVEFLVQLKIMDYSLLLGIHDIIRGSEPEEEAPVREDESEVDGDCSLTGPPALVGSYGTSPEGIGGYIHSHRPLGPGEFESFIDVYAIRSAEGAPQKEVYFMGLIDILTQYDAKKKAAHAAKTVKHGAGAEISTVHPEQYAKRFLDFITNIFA
Test: HiBiT PIP4K2C degradation assay in MOLT-4 cells (endogenous PIP4K2C C-terminally tagged with HiBiT)
Format: cell-based
Parameters: untagged in primary human PBMCs and monocyte-derived dendritic cells
Conditions: 6 hours of incubation time, rather than 24 hours; MOLT-4, top concentration 10 micromolar; read-out: HiBIT-degradation MOLT4 PIP4k2C DC50 (6 hours, marked *)
Summary of the method: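 Endogenous PIP4K2C was C-terminally HiBiT-tagged by CRISPR-Cas9 in MOLT-4 cells, which were treated with a 10-point, 3-fold dilution series from 10 micromolar in duplicate for 24 or 6 hours at 37 C. Remaining protein was read by HiBiT lytic luminescence, and DC50 came from a Hill fit.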

Compound `O=C1CCC(Nc2ccc(N3CCN([C@H]4CC[C@H](NC(=O)[C@H]5CC[C@H](Nc6ncc(F)c(-c7cccc(C8CC8)c7)n6)CC5)CC4)CC3)c(F)c2)C(=O)N1` (stereo partly drawn) [Compound 557, trans-(1r,4R)-4-((4-(3-cyclopropylphenyl)-5-fluoropyrimidin-2-yl)amino)-N-((1r,4R)-4-(4-(4-((2,6-dioxopiperidin-3-yl)amino)-2-fluorophenyl)piperazin-1-yl)cyclohexyl)cyclohexane-1-carboxamide] has a DC50 of under 500 nM.
`O=C1CCC(Nc2ccc(C3CCN([C@H]4CC[C@H](C(=O)N[C@H]5CC[C@H](Nc6ncc(F)c(-c7cccc(C8CC8)c7)n6)CC5)CC4)CC3)c(F)c2)C(=O)N1` (stereo partly drawn) [Compound 558, trans-(1r,4R)—N-((1r,4R)-4-((4-(3-cyclopropylphenyl)-5-fluoropyrimidin-2-yl)amino)cyclohexyl)-4-(4-(4-((2,6-dioxopiperidin-3-yl)amino)-2-fluorophenyl)piperidin-1-yl)cyclohexane-1-carboxamide] showed a DC50 of under 500 nM.
`O=C1CCC(Nc2ccc(N3CCN([C@H]4CC[C@H](C(=O)N[C@H]5CC[C@H](Nc6ncc(F)c(-c7cccc(C8CC8)c7)n6)CC5)CC4)CC3)c(F)c2)C(=O)N1` (stereo partly drawn) [Compound 559, trans-N-(trans-4-((4-(3-cyclopropylphenyl)-5-fluoropyrimidin-2-yl)amino)cyclohexyl)-4-(4-(4-((2,6-dioxopiperidin-3-yl)amino)-2-fluorophenyl)piperazin-1-yl)cyclohexane-1-carboxamide] showed a DC50 of under 500 nM.
With `O=C1CCC(Nc2ccc(N3CCN(C[C@H]4CC[C@H](CC(=O)N[C@H]5CC[C@H](Nc6ncc(F)c(-c7cccc(N8CCCCC8=O)c7)n6)CC5)CC4)CC3)c(F)c2)C(=O)N1` (stereo partly drawn) [Compound 560, trans-2-((1r,4R)-4-((4-(4-((2,6-dioxopiperidin-3-yl)amino)-2-fluorophenyl)piperazin-1-yl)methyl)cyclohexyl)-N-((1r,4R)-4-((5-fluoro-4-(3-(2-oxopiperidin-1-yl)phenyl)pyrimidin-2-yl)amino)cyclohexyl)acetamide] the DC50 was under 500 nM.
In the case of `O=C1CCC(Nc2ccc(N3CCN(C[C@H]4CC[C@H](CC(=O)N[C@H]5CC[C@H](Nc6ncc(F)c(-c7cccc(N8CCCOC8=O)c7)n6)CC5)CC4)CC3)c(F)c2)C(=O)N1` (stereo partly drawn) [Compound 561, trans-2-((1r,4R)-4-((4-(4-((2,6-dioxopiperidin-3-yl)amino)-2-fluorophenyl)piperazin-1-yl)methyl)cyclohexyl)-N-((1r,4R)-4-((5-fluoro-4-(3-(2-oxo-1,3-oxazinan-3-yl)phenyl)pyrimidin-2-yl)amino)cyclohexyl)acetamide], the DC50 was under 500 nM.
Work on `O=C1CCC(Nc2ccc(N3CCN(C[C@H]4CC[C@H](CC(=O)N[C@H]5CC[C@H](Nc6ncc(F)c(-c7cccc(N8CCOCC8=O)c7)n6)CC5)CC4)CC3)c(F)c2)C(=O)N1` (stereo partly drawn) [Compound 562, trans-2-((1r,4R)-4-((4-(4-((2,6-dioxopiperidin-3-yl)amino)-2-fluorophenyl)piperazin-1-yl)methyl)cyclohexyl)-N-((1r,4R)-4-((5-fluoro-4-(3-(3-oxomorpholino)phenyl)pyrimidin-2-yl)amino)cyclohexyl)acetamide] yielded a DC50 of under 500 nM.
Work on `O=C1CCC(Nc2ccc(C3CCN([C@H]4CC[C@H](NC(=O)[C@H]5CC[C@H](Nc6ncc(F)c(-c7cccc(N8CCCOC8=O)c7)n6)CC5)CC4)CC3)c(F)c2)C(=O)N1` (stereo partly drawn) [Compound 563, trans-N-(trans-4-(4-(4-((2,6-dioxopiperidin-3-yl)amino)-2-fluorophenyl)piperidin-1-yl)cyclohexyl)-4-((5-fluoro-4-(3-(2-oxo-1,3-oxazinan-3-yl)phenyl)pyrimidin-2-yl)amino)cyclohexane-1-carboxamide] yielded a DC50 of under 500 nM.
`O=C1CCC(Nc2ccc(N3CCN([C@H]4CC[C@H](NC(=O)[C@H]5CC[C@H](Nc6ncc(F)c(-c7cccc(N8CCCCC8=O)c7)n6)CC5)CC4)CC3)c(F)c2)C(=O)N1` (stereo partly drawn) [Compound 564, (1r,4R)—N-((1r,4R)-4-(4-(4-((2,6-dioxopiperidin-3-yl)amino)-2-fluorophenyl)piperazin-1-yl)cyclohexyl)-4-((5-fluoro-4-(3-(2-oxopiperidin-1-yl)phenyl)pyrimidin-2-yl)amino)cyclohexane-1-carboxamide] gave a DC50 of under 500 nM.
For `O=C1CCC(Nc2ccc(C3CCN([C@H]4CC[C@H](NC(=O)[C@H]5CC[C@H](Nc6ncc(F)c(-c7cccc(N8CCCCC8=O)c7)n6)CC5)CC4)CC3)c(F)c2)C(=O)N1` (stereo partly drawn) [Compound 565, trans-N-(trans-4-(4-(4-((2,6-dioxopiperidin-3-yl)amino)-2-fluorophenyl)piperidin-1-yl)cyclohexyl)-4-((5-fluoro-4-(3-(2-oxopiperidin-1-yl)phenyl)pyrimidin-2-yl)amino)cyclohexane-1-carboxamide], the DC50 was under 500 nM.
`O=C1CCC(Nc2ccc(C3CCN([C@H]4CC[C@H](C(=O)N[C@H]5CC[C@H](Nc6ncc(F)c(-c7cccc(N8CCCCC8=O)n7)n6)CC5)CC4)CC3)c(F)c2)C(=O)N1` (stereo partly drawn) [Compound 566, trans-(1r,4R)-4-(4-(4-((2,6-dioxopiperidin-3-yl)amino)-2-fluorophenyl)piperidin-1-yl)-N-((1r,4R)-4-((5-fluoro-4-(6-(2-oxopiperidin-1-yl)pyridin-2-yl)pyrimidin-2-yl)amino)cyclohexyl)cyclohexane-1-carboxamide] gave a DC50 of under 500 nM.
Compound `O=C1CCC(Nc2ccc(C3CCN([C@H]4CC[C@H](C(=O)N[C@H]5CC[C@H](Nc6ncc(F)c(-c7cccc(-n8ccccc8=O)n7)n6)CC5)CC4)CC3)c(F)c2)C(=O)N1` (stereo partly drawn) [Compound 567, trans-(1r,4R)-4-(4-(4-((2,6-dioxopiperidin-3-yl)amino)-2-fluorophenyl)piperidin-1-yl)-N-((1r,4R)-4-((5-fluoro-4-(2-oxo-2H-[1,2′-bipyridin]-6′-yl)pyrimidin-2-yl)amino)cyclohexyl)cyclohexane-1-carboxamide] has a DC50 of under 500 nM.
`O=C1CCC(Nc2ccc(C3CCN([C@H]4CC[C@H](C(=O)N[C@H]5CC[C@H](Nc6ncc(F)c(-c7cccc(N8CCOCC8=O)c7)n6)CC5)CC4)CC3)c(F)c2)C(=O)N1` (stereo partly drawn) [Compound 568, trans-(1r,4R)-4-(4-(4-((2,6-dioxopiperidin-3-yl)amino)-2-fluorophenyl)piperidin-1-yl)-N-((1r,4R)-4-((5-fluoro-4-(3-(3-oxomorpholino)phenyl)pyrimidin-2-yl)amino)cyclohexyl)cyclohexane-1-carboxamide] showed a DC50 of under 500 nM.
`O=C1CCC(Nc2ccc(C3CCN([C@H]4CC[C@H](C(=O)N[C@H]5CC[C@H](Nc6ncc(F)c(-c7ccnc(C8(O)CCC8)c7)n6)CC5)CC4)CC3)c(F)c2)C(=O)N1` (stereo partly drawn) [Compound 569, trans-(1r,4R)-4-(4-(4-((2,6-dioxopiperidin-3-yl)amino)-2-fluorophenyl)piperidin-1-yl)-N-((1r,4R)-4-((5-fluoro-4-(2-(1-hydroxycyclobutyl)pyridin-4-yl)pyrimidin-2-yl)amino)cyclohexyl)cyclohexane-1-carboxamide] showed a DC50 of under 500 nM.
Work on `O=C1CCC(Nc2ccc(C3CCN([C@H]4CC[C@H](C(=O)N[C@H]5CC[C@H](Nc6ncc(F)c(-c7ccnc(N8CCOCC8=O)c7)n6)CC5)CC4)CC3)c(F)c2)C(=O)N1` (stereo partly drawn) [Compound 570, trans-(1r,4R)-4-(4-(4-((2,6-dioxopiperidin-3-yl)amino)-2-fluorophenyl)piperidin-1-yl)-N-((1r,4R)-4-((5-fluoro-4-(2-(3-oxomorpholino)pyridin-4-yl)pyrimidin-2-yl)amino)cyclohexyl)cyclohexane-1-carboxamide] yielded a DC50 of under 500 nM.
In the case of `O=C1CCC(Nc2ccc(C3CCN([C@H]4CC[C@H](C(=O)N[C@H]5CC[C@H](Nc6ncc(F)c(-c7ccnc(N8CCCCC8=O)c7)n6)CC5)CC4)CC3)c(F)c2)C(=O)N1` (stereo partly drawn) [Compound 571, trans-(1r,4R)-4-(4-(4-((2,6-dioxopiperidin-3-yl)amino)-2-fluorophenyl)piperidin-1-yl)-N-((1r,4R)-4-((5-fluoro-4-(2-(2-oxopiperidin-1-yl)pyridin-4-yl)pyrimidin-2-yl)amino)cyclohexyl)cyclohexane-1-carboxamide], the DC50 was under 500 nM.
Work on `O=C1CCC(Nc2ccc(C3CCN([C@H]4CC[C@H](C(=O)N[C@H]5CC[C@H](Nc6ncc(F)c(-c7ccnc(N8CCCOC8=O)c7)n6)CC5)CC4)CC3)c(F)c2)C(=O)N1` (stereo partly drawn) [Compound 572, trans-(1r,4R)-4-(4-(4-((2,6-dioxopiperidin-3-yl)amino)-2-fluorophenyl)piperidin-1-yl)-N-((1r,4R)-4-((5-fluoro-4-(2-(2-oxo-1,3-oxazinan-3-yl)pyridin-4-yl)pyrimidin-2-yl)amino)cyclohexyl)cyclohexane-1-carboxamide] yielded a DC50 of under 500 nM.
Work on `O=C1CCC(Nc2ccc(C3CCN([C@H]4CC[C@H](C(=O)N[C@H]5CC[C@H](Nc6ncc(F)c(-c7ccnc(-n8ccccc8=O)c7)n6)CC5)CC4)CC3)c(F)c2)C(=O)N1` (stereo partly drawn) [Compound 573, trans-(1r,4R)-4-(4-(4-((2,6-dioxopiperidin-3-yl)amino)-2-fluorophenyl)piperidin-1-yl)-N-((1r,4R)-4-((5-fluoro-4-(2-oxo-2H-[1,2′-bipyridin]-4′-yl)pyrimidin-2-yl)amino)cyclohexyl)cyclohexane-1-carboxamide] yielded a DC50 of under 500 nM.
